US9555021B2, “Pharmaceutical compositions comprising (3-(1-(1H-imidazol-4-yl)ethyl)-2-methylphenyl)methanol” (Allergan, Inc., priority 2009, dated 2017)
pEC50, pIC50: −log10 of the molar value.

Assays:
[1] = FIG. 3 / FIG. 4
Description: The tactile hypersensitivity of 5-6 mice (weighing approx. 25 g) per group was scored every five minutes between 15 and 50 minutes following intraperitoneal dosing with 300 ng/kg (in a 1 mL/kg volume) sulprostone (Cayman Chemical Company, Ann Arbor, Mich.). Compound I or vehicle was administered intraperitoneally 15 minutes prior to sulprostone.
(§3) Tactile hypersensitivity was quantified by scoring the response of mice to light stroking of their flanks with a small paintbrush, which is not normally painful.
The computer analyses this movement and records total activity. Locomotor activity relative to vehicle-treated animals was expressed as a percentage; percentage sedation was calculated as 100% minus the percent locomotor activity. Statistical calculations of significance for in vivo studies were done using a two-tailed Student's t-test.

mice [2] = settings: as described in Gil et al., Br J Pharmacol 153: 769-74 (2008); cited from earlier work
[3] = target: T1, alpha-1A adrenergic receptor (Homo sapiens, UniProt P35348); assay: FLIPR assay (intracellular calcium), alpha-1A adrenergic receptor; type: cell-based; settings: for alpha-1A activity in words (agonist/antagonist): Table 2; for α-1A relative efficacy as compared to norepinephrine: agonism; for pEC50: first line of cell, HEK 293 cells, unit inferred, compounds tested at 0.64 nM-10,000 nM, read-out: α-1A agonism EC50
T1 sequence (P35348 1-466): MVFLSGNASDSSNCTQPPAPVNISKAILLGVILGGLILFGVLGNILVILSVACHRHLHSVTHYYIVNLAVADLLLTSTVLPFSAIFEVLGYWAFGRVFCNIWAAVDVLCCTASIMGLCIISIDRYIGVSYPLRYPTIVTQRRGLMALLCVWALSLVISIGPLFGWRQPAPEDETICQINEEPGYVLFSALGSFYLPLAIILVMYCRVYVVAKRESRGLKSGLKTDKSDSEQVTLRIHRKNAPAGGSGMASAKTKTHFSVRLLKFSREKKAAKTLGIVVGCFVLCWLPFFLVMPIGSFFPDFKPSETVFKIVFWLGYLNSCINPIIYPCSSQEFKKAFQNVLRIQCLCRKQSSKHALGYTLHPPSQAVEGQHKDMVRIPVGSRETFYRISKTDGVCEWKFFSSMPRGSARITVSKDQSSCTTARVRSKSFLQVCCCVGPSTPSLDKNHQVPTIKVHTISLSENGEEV
Description: (§1) Compounds of the invention were evaluated in a FLIPR assay in order to determine their specificity for five alpha adrenergic receptors. The FLIPR assay measures release of intracellular calcium in response to receptor activation. Cells are preloaded with a calcium sensitive dye that fluoresces in response to calcium. Receptors that activate the G protein, Gq, elicit the response. Alpha adrenergic receptors, which normally couple to Gi, trigger the increase in intracellular calcium when coexpressed with a hybrid Gq protein containing a Gi receptor recognition domain, designated Gq/i5 (Conklin et al., Nature 363:274-6 (1993)) or with the promiscuous G protein Ga16.
(§2) The assay was performed essentially as follows. HEK 293 cells stably expressing an alpha-2 receptor and either the chimeric G-protein Gqi5 or the promiscuous G protein G16 were plated in poly-D-lysine coated 384-well plates at 20,000-25,000 cells per well and grown overnight in DMEM supplemented with 10% FBS. Cells were washed twice with HBSS/HEPES Buffer (1× Hanks Buffered Salt Solution, 20 mM HEPES, pH 7.4) prior to the addition of Fluo-4-AM (4 μM Fluo-4-AM, 0.04% pluronic acid in HBSS/HEPES Buffer), a calcium-sensitive dye. Cells were loaded with dye for 60 minutes at 37° C., then washed 4 times with HBSS/HEPES Buffer. The reaction was initiated by the addition of the appropriate dilutions of compounds (final concentration between 0.64 nM-10,000 nM) and the transient calcium signal captured. The peak height of the calcium curve was determined and utilized for calculation of EC50 and efficacy using ActivityBase.

[4] = target: T2, alpha-1B adrenergic receptor (Homo sapiens, UniProt P35368); assay: FLIPR assay (intracellular calcium), alpha-1B adrenergic receptor; type: cell-based; settings: unit inferred; for pEC50: first line of cell, compounds tested at 0.64 nM-10,000 nM, read-out: α-1B agonism EC50; for pIC50: second line of cell, read-out: α-1B antagonism IC50
T2 sequence (P35368 1-520): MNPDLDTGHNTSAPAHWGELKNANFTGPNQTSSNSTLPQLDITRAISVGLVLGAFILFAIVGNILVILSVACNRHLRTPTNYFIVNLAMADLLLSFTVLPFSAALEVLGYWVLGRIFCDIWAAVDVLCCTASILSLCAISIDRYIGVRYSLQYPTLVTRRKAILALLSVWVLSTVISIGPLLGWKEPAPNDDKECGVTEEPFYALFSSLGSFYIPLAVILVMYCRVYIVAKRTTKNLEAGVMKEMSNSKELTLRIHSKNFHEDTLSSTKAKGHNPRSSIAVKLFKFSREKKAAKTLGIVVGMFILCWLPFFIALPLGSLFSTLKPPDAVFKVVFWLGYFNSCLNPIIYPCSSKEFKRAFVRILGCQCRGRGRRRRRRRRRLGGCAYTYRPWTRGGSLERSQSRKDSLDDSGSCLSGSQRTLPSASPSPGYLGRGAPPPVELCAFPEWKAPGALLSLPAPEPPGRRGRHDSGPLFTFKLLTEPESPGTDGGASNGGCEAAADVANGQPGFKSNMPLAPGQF
Description: as §1, §2

[5] = target: T3, alpha-2A adrenergic receptor (Homo sapiens, UniProt P08913); assay: FLIPR assay (intracellular calcium), alpha-2A adrenergic receptor; type: cell-based; settings: for alpha-2A activity in words (agonist/antagonist): Table 2; for α-2A relative efficacy as compared to norepinephrine: agonism; for pEC50: first line of cell, compounds tested at 0.64 nM-10,000 nM, read-out: α-2A agonism EC50
T3 construct: expressed in transfected cells
T3 sequence (P08913 1-465): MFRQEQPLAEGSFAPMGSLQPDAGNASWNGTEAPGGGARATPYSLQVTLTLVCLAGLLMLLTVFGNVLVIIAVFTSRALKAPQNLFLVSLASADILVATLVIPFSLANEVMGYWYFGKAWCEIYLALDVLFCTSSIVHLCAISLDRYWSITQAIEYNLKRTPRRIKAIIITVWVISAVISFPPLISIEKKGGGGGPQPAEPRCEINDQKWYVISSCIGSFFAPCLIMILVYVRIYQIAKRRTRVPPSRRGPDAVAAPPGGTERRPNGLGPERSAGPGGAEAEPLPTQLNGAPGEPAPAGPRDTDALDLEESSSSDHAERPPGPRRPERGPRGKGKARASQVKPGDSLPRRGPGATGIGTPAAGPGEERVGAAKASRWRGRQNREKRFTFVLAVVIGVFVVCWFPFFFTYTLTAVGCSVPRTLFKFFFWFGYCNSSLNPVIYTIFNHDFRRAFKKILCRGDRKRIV
Description: as §1, §2

[6] = target: T4, alpha-2B adrenergic receptor (Homo sapiens, UniProt P18089); assay: FLIPR assay (intracellular calcium), alpha-2B adrenergic receptor; type: cell-based; settings: for alpha-2B activity in words (agonist/antagonist): Table 2; for α-2B relative efficacy as compared to norepinephrine: agonism, value in parenthesis; for pEC50: first line of cell, unit inferred, compounds tested at 0.64 nM-10,000 nM, read-out: α-2B agonism EC50
T4 construct: expressed in transfected cells
T4 sequence (P18089 1-450): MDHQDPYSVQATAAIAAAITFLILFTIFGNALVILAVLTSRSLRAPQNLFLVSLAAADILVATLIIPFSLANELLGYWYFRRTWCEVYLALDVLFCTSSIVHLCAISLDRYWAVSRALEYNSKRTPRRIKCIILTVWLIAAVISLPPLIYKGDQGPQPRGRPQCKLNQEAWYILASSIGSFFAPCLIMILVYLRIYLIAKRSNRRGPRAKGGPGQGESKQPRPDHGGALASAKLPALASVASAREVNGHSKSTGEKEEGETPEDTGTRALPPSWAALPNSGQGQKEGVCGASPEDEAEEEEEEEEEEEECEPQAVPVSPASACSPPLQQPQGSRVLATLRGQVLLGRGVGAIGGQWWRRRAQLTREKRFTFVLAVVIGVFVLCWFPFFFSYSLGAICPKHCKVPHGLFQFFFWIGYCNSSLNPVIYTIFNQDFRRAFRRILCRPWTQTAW
Description: as §1, §2

[7] = target: T5, alpha-2C adrenergic receptor (Homo sapiens, UniProt P18825); assay: FLIPR assay (intracellular calcium), alpha-2C adrenergic receptor; type: cell-based; settings: for alpha-2C activity in words (agonist/antagonist): Table 2; for α-2C relative efficacy as compared to norepinephrine: agonism, value in parenthesis; for pEC50: first line of cell, unit inferred, compounds tested at 0.64 nM-10,000 nM, read-out: α-2C agonism EC50
T5 construct: expressed in transfected cells
T5 sequence (P18825 1-462): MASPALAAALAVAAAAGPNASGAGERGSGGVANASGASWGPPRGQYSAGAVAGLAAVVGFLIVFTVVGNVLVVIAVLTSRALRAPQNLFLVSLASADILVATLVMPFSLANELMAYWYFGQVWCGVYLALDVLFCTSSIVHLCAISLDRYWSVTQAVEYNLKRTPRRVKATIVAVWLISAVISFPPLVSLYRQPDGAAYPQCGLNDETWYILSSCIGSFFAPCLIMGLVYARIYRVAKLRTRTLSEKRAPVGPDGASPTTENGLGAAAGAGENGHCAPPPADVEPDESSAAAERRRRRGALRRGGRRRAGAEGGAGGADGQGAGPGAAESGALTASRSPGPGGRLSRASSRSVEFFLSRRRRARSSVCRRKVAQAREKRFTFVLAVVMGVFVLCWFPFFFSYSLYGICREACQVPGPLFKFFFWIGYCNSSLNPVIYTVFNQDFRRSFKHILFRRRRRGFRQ
Description: as §1, §2

mice [8] = assay: Sulprostone-induced tactile hypersensitivity; type: in vivo; settings: 0.3 mg/kg intraperitoneally 15 minutes prior to sulprostone
Description: The tactile hypersensitivity of 5-6 mice (weighing approx. 25 g) per group was scored every five minutes between 15 and 50 minutes following intraperitoneal dosing with 300 ng/kg (in a 1 mL/kg volume) sulprostone (Cayman Chemical Company, Ann Arbor, Mich.).
as §3

mice [9] = assay: Locomotor activity (sedation); type: in vivo; settings: 30 minutes after dosing
[10] = second line of cell, value in parenthesis

Structure (SMILES) | margin of safety for pain reduction vs. sedation [1] | activity in sulprostone-induced tactile hypersensitivity model (mice [2]) | alpha-1A activity in words (agonist/antagonist) [3] | α-1A relative efficacy as compared to norepinephrine ([3]; value in parenthesis) | pEC50 [3] | pEC50 [4] | alpha-2A activity in words (agonist/antagonist) [5] | α-2A relative efficacy as compared to norepinephrine ([5]; value in parenthesis) | pEC50 ([5]; unit inferred) | alpha-2B activity in words (agonist/antagonist) [6] | α-2B relative efficacy as compared to norepinephrine [6] | pEC50 [6] | alpha-2C activity in words (agonist/antagonist) [7] | α-2C relative efficacy as compared to norepinephrine [7] | pEC50 [7] | pIC50 [4] | other results
Cc1cccc([C@H](C)c2cnc[nH]2)c1C [dexmedetomidine] | no margin of safety |  |  |  |  |  |  |  |  |  |  |  |  |  |  |  | 
CN(C)CCC=C1c2ccccc2CCc2ccccc21 [amitriptyline] |  | active |  |  |  |  |  |  |  |  |  |  |  |  |  |  | 
Cc1c(CO)cccc1[C@H](C)c1c[nH]cn1 [Compound III, (S)-(3-(1-(1H-imidazol-4-yl)ethyl)-2-methylphenyl)methanol] |  |  | some alpha-1A agonist activity | (.76) | 6.35 | < 5.08 | alpha-2 pan agonist | (.9) | 7.14 | alpha-2 pan agonist | (.93) | 8.52 | alpha-2 pan agonist | (1) | 8.10 |  | 
NCC1(CC(=O)O)CCCCC1 [gabapentin] |  | active |  |  |  |  |  |  |  |  |  |  |  |  |  |  | 
Cc1c(CO)cccc1[C@@H](C)c1c[nH]cn1 [Compound II, (R)-(3-(1-(1H-imidazol-4-yl)ethyl)-2-methylphenyl)methanol] |  |  |  |  | < 5.00 | < 5.00 | antagonist |  | < 5.00 | agonist | (.68) | 7.28 | agonist | (.64) | 6.77 | < 5.08 | α-1A percent antagonism [3, 10]: (39%); α-2A percent antagonism [5, 10]: (96%); pIC50 ([5]; second line of cell, unit inferred, read-out: α-2A antagonism IC50): 6.84
Cc1c(CO)cccc1C(C)c1c[nH]cn1 (racemic) [Compound I, (3-(1-(1H-imidazol-4-yl)ethyl)-2-methylphenyl)methanol] | > 10 fold |  | some alpha-1A agonist activity | (.69) | 5.79 | < 5.00 | alpha-2 pan agonist | (.75) | 7.27 | alpha-2 pan agonist | (.94) | 8.26 | alpha-2 pan agonist | (.98) | 7.80 | < 5.08 | reduction in sulprostone induced hypersensitivity (mice [8]): back to control levels; sedation (locomotor activity) (mice [9]; 1 mg/kg intraperitoneal): minimally sedating; sedation (locomotor activity) (mice [9]; 3 mg/kg intraperitoneal): highly sedating
